According to US20210077592A1, “COMPOSITION TO PREVENT INTESTINAL DAMAGE” (FUSION FARM S.R.L. SEMPLIFICATA, priority 2017, published 2021):

Key:
Type in all cases: cell-based
[1] = test system: Caco-2 cells; assay: Lucifer Yellow (LY) assay of paracellular permeability in Caco-2 intestinal damage model
Description: A protocol was developed based on Caco-2 cell inserts model (CACOREADY™ cells, lot no. 24 676 101716 and no. 24 680 111416, Readycell manufacturer) consisting in two steps:
1. Induction of epithelial damage (40 h incubation in glutamine free medium followed by stress induced by 60 mM ethanol for 4 h)
2. Evaluation of the single products first, and then applied in combination during stress induced by the absence of glutamine (60 h), and with subsequent stress induced by ethanol, to evaluate the efficacy in preventing damage. […]
Cells without damage induction (NC=without damage) and with damage induction (PC) were evaluated with the Lucifer Yellow (LY) assay, which verifies the integrity of the cellular junctions in presence of the test substance. […]
According to the experimental protocol, to evaluate the efficacy of the composition of the invention in damage prevention, sodium butyrate (2 mM concentration) and lactoferrin (400 μg/ml concentration), either alone or in combination, were applied on Caco-2 cells during stress induced by absence of glutamine, increasing the time of said deprivation, with respect to the conditions tested during the development of the model, and therefore of stress induction, to 60 hours, to make more evident differences in cells behavior in the different treatment situations. […] The parameters were evaluated at the end. […]

[2] = test system: Occludin and Zonula Occludens in Caco-2 cells; assay: Fluorescence immunolabeling of Occludin and Zonula Occludens in Caco-2 cells after damage induction; details: pretreatment 60 h without glutamine, then 60 mM ethanol 4 h
Description: As it can be seen by FIG. 1, the damage induced an increase in permeability. The same cells without damage induction (NC) and with damage induction (PC), as indicated above, were further evaluated by fluorescence immunolabeling of Occludina and Zonula Occludens (proteins present in the intestinal membrane intracellular junctions).
(§1) According to the experimental protocol, to evaluate the efficacy of the composition of the invention in damage prevention, sodium butyrate (2 mM concentration) and lactoferrin (400 μg/ml concentration), either alone or in combination, were applied on Caco-2 cells during stress induced by absence of glutamine, increasing the time of said deprivation, with respect to the conditions tested during the development of the model, and therefore of stress induction, to 60 hours, to make more evident differences in cells behavior in the different treatment situations. At the end of 60 hours, the products were removed, and damage was induced for 4 h with 60 mM ethanol. The parameters were evaluated at the end.
To confirm the observed behavior, an evaluation using fluorescence immunolabeling of Occludin and Zonula Occludens was also performed.

[3] = test system: Caco-2 cells; assay: Electron Microscopy (SEM) of microvilli of Caco-2 cells after damage induction; details: pretreatment 60 h without glutamine, then 60 mM ethanol 4 h, 750x-10000x
Description: The same cells without damage induction (NC) and with damage induction (PC), as indicated above, were finally evaluated by Electron Microscopy (SEM) at different magnifications.
as §1
The same cells were finally evaluated also by Electron Microscopy SEM, at various magnifications.

CCCC(=O)[O-].[Na+] [sodium butyrate, reference compound]
increase in LY flux (permeability) ([1]; 2 mM sodium butyrate alone during 60 h glutamine deprivation, then 60 mM ethanol 4 h): over 51% | permeability (LY), result in words ([1]; treatment at the same time as damage induction): significant increase in permeability | fluorescence intensity / expression of tight junction proteins (Occludin, Zonula Occludens), result in words [2]: lower expression of the tight junctions' proteins | effect on microvilli / villous atrophy by SEM, result in words [3]: did not have any effect in combating the partial villous atrophy
